In patent US20240342135A1, “USE OF NITRATE AND VITAMIN C MICROCAPSULE FOR TREATING SICCA SYNDROME” (CAPITAL MEDICAL UNIVERSITY, priority 2021, published 2024):
Marks after values point to notes of the source that are not given here.

How the values were obtained:
NOD/Itj mice [1] = test: Lymphocyte infiltration in submandibular gland of NOD/Itj mice (HE staining, Image J); assay type: in vivo; details: 14th week, gastric gavage from 8th week, microcapsules 0.4 mmol/kg NO3−, NaNO3 0.4 mmol/kg, Vc 2 mmol/kg
Experimental: The salivary flow rate was measured every two weeks from the 8th week after birth, and the saliva was collected. At the same time, the submandibular gland samples were collected and stained with HE for histological observation, and the degree of lymphocyte infiltration was analyzed by Image J.
After the experimental animals were sacrificed, they were placed on supine position, disinfected, and the neck was incised to dissect the submandibular gland completely. The tissues were washed with PBS, cut into 0.2 cmx 0.2 cm, and fixed in 4% paraformaldehyde (pH 7.2) at 4° C. for 24-48 h. After dehydration, wax impregnation and embedding, the tissues were sectioned at a thickness of 4 μm and baked, followed by hematoxylin and eosin (HE) staining. The remaining fresh samples were placed in a refrigerator at −80° C.
(§1) Saliva flow rate was measured […].

NOD/Itj mice [2] = test: Salivary flow rate of NOD/Itj mice (animal model of SS); assay type: in vivo; details: for effect on salivary flow rate of NOD/Itj mice (in words): gastric gavage; for Salivary flow rate (mean value ± SD): NOD/Itj mice, gastric gavage from 8th week, microcapsules 0.4 mmol/kg NO3−, NaNO3 0.4 mmol/kg, Vc 2 mmol/kg
Experimental: Therefore, the NOD/Itj mouse can be used as an animal model of SS. Subsequently, the microcapsules of the present invention were administered by gastric gavage, the saliva flow rate was monitored, and the experimental samples were collected at the 12th week to observe the prophylactic and therapeutic effects of the microcapsules of the present invention on SS.
After proper anaesthesia, the mice were injected I.P. with pilocarpine nitrate in aseptic normal saline at a concentration of 0.4 mg/ml and a dosage of 0.5 mg/100 g b.w. After the injection, the mice were laid on a 20° inclined mouse board on prone position, with the head slightly inclined downward, so that the head was in a slightly lower position. About 5 minutes after the injection, after the first drop of saliva from the mouth of the mouse, after 5 minutes, the time was recorded and the saliva was collected, and the amount of saliva was collected for 20 minutes (the amount of saliva is detected by inserting a small sterile cotton ball with known weight under the tongue of mouse, and weighing cotton ball 20 minutes later).
as §1

[3] = In vivo test: nitrate content in the blood of mice after single gastric gavage; details: 2 mmol/kg sodium nitrate, once
Experimental: Blood was collected from vena caudalis at 0 h, and 2, 4, 6, 12, and 24 h after gastric gavage, respectively.

[4] = after oral administration; cited from earlier work

| Structure (SMILES) | Infiltration area of the submandibular gland (NOD/Itj mice [1]) | effect on salivary flow rate of NOD/Itj mice (in words) (NOD/Itj mice [2]) | Salivary flow rate (mean value ± SD) (NOD/Itj mice [2]; week 8) [g/10 min] | Salivary flow rate (mean value ± SD) (NOD/Itj mice [2]; week 9) [g/10 min] | Salivary flow rate (mean value ± SD) (NOD/Itj mice [2]; week 10) [g/10 min] | Salivary flow rate (mean value ± SD) (NOD/Itj mice [2]; week 11) [g/10 min] | Salivary flow rate (mean value ± SD) (NOD/Itj mice [2]; week 12) [g/10 min] | Salivary flow rate (mean value ± SD) (NOD/Itj mice [2]; week 13) [g/10 min] | Salivary flow rate (mean value ± SD) (NOD/Itj mice [2]; week 14) [g/10 min] | Nitrate content in the blood of the mice after single administration ([3]; 0 h) [µmol/L] | Nitrate content in the blood of the mice after single administration ([3]; 2 h) [µmol/L] | Nitrate content in the blood of the mice after single administration ([3]; 4 h) [µmol/L] | Nitrate content in the blood of the mice after single administration ([3]; 6 h) [µmol/L] | Nitrate content in the blood of the mice after single administration ([3]; 12 h) [µmol/L] | Nitrate content in the blood of the mice after single administration ([3]; 24 h) [µmol/L] | half-life in vivo [4] [h] |
| --- | --- | --- | --- | --- | --- | --- | --- | --- | --- | --- | --- | --- | --- | --- | --- | --- |
| O=[N+]([O-])[O-].[Na+] [NaNO3, sodium nitrate] | 4.42 ± 0.54^b % | no obvious influence | 0.078 ± 0.011 | 0.068 ± 0.006 | 0.060 ± 0.004 | 0.057 ± 0.004 | 0.061 ± 0.009 | 0.062 ± 0.007 | 0.059 ± 0.009 | 41.8 | 1052.8 | 572.4 | 297.4 | 45.3 | 32.7 | – |
| O=C1O[C@H]([C@@H](O)CO)C(O)=C1O [Vc, vitamin C] | 5.16 ± 0.58% | no obvious influence | 0.077 ± 0.012 | 0.063 ± 0.008 | 0.049 ± 0.007 | 0.041 ± 0.008 | 0.038 ± 0.006 | 0.035 ± 0.008 | 0.034 ± 0.007 | – | – | – | – | – | – | 2 |
